The values that follow come from paper PMC10268488, “Indole-carbohydrazide linked phenoxy-1,2,3-triazole-N-phenylacetamide derivatives as potent α-glucosidase inhibitors: design, synthesis, in vitro α-glucosidase inhibition, and computational studies” (BMC Chemistry, 2023).

What is called IC50 is the concentration that gives 50% inhibition. What is called melting point is the temperature, or range, at which the solid turns liquid. As usually defined, the Ki is a dissociation constant, usually derived from enzyme kinetics or from competition with a known ligand. A higher Ki goes with a looser hold on the target.

Like-named read-outs stand apart in the source and are kept apart here.

Series [1] deals with T1, yeast α-glucosidase (Saccharomyces cerevisiae, UniProt P53341). Briefly: biochemical. The conditions noted are these: for diminished inhibitory activity relative to compound 11d: replacement of methoxy substituent of 11d. In kind it is biochemical.
T1 sequence (P53341 whole entry): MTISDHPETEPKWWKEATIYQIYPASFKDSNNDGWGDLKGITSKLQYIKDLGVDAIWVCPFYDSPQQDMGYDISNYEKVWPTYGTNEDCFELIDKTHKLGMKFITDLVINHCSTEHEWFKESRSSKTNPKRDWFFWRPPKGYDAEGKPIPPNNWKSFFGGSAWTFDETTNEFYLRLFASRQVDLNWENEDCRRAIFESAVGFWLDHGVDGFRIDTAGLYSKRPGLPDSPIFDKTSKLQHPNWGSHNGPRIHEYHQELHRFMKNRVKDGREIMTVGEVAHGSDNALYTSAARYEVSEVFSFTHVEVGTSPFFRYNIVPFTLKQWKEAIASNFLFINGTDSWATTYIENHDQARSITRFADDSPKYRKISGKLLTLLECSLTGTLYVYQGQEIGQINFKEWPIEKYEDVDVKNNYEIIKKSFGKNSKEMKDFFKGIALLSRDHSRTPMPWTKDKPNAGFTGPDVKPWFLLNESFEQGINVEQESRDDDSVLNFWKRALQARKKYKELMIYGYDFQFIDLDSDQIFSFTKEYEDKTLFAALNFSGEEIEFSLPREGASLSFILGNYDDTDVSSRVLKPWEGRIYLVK
In series [2] the target is T1, yeast α-glucosidase. Briefly: Kinetic study of α-glucosidase inhibition (Lineweaver–Burk plots). In kind it is biochemical. The conditions noted are these: for mechanism of α-glucosidase inhibition: Lineweaver–Burk plots, both Vmax and Km decreased; for Ki: Lineweaver–Burk secondary plot, substrate p-nitrophenyl-glucopyranoside 1–4 mM. The source says: Then, the Lineweaver-Burke plots were depicted using by the reciprocal of velocity and substrate concentration (Fig. 5).

For series [3], the system named is normal human dermal fibroblast (HDF) cell line. Put plainly: In vitro cytotoxicity assay. The class given is cell-based. The conditions noted are these: HDF cells, 50 μM concentration. On the procedure:
To assess of the cytotoxic effects of the new synthesized compounds, cytotoxicity of compounds 11d and 11n as the representative compounds was evaluated against the normal human dermal fibroblast (HDF) cell line.
Evaluation of cytotoxic effects of the synthesized compounds 11d and 11n was performed exactly based on our previous report.

Setting [4] is: read-out: IC50 (anti-α-glucosidase activity).

On to `O=C(Cn1cc(COc2ccc(/C=N/NC(=O)c3cc4ccccc4[nH]3)cc2)nn1)Nc1ccccc1` [Compound 11a, (E)-2-(4-((4-((2-(1H-indole-2-carbonyl)hydrazono)methyl)phenoxy)methyl)-1H-1,2,3-triazol-1-yl)-N-phenylacetamide], for which the melting point lay within 194 to 196 °C. The 50% inhibitory concentration (IC50) on yeast α-glucosidase [1] (setting [4]) came out at 15.2 ± 0.18 µM.

As to `Cc1ccccc1NC(=O)Cn1cc(COc2ccc(/C=N/NC(=O)c3cc4ccccc4[nH]3)cc2)nn1` [Compound 11b, (E)-2-(4-((4-((2-(1H-indole-2-carbonyl)hydrazono)methyl)phenoxy)methyl)-1H-1,2,3-triazol-1-yl)-N-(o-tolyl)acetamide], on yeast α-glucosidase [1] (setting [4]), the IC50 amounted to 8.88 ± 0.07 µM. In addition, at yeast α-glucosidase [2], the “mechanism of α-glucosidase inhibition” value is “uncompetitive inhibitors” and the inhibition constant (Ki) is 8.5 µM.

For `Cc1ccc(NC(=O)Cn2cc(COc3ccc(/C=N/NC(=O)c4cc5ccccc5[nH]4)cc3)nn2)cc1` [Compound 11c, (E)-2-(4-((4-((2-(1H-indole-2-carbonyl)hydrazono)methyl)phenoxy)methyl)-1H-1,2,3-triazol-1-yl)-N-(p-tolyl)acetamide], the IC50 at yeast α-glucosidase [1] (setting [4]) came to 19.12 ± 0.08 µM. Further, the “diminished inhibitory activity relative to compound 11d” value at yeast α-glucosidase [1] is on record as 3 folds.

Consider `COc1ccc(NC(=O)Cn2cc(COc3ccc(/C=N/NC(=O)c4cc5ccccc5[nH]4)cc3)nn2)cc1` [Compound 11d, (E)-2-(4-((4-((2-(1H-indole-2-carbonyl)hydrazono)methyl)phenoxy)methyl)-1H-1,2,3-triazol-1-yl)-N-(4-methoxyphenyl)acetamide], for which the “times more potent than acarbose” value at yeast α-glucosidase [1] (ratio of IC50 values vs acarbose) turned out to be 118.8 times. Further, the concentration for half-maximal inhibition (IC50) on yeast α-glucosidase [1] (setting [4]) came out at 6.31 ± 0.03 µM. In series [3], the “cytotoxicity on normal cell line” value is on record as “non-cytotoxic”. For the same compound, on yeast α-glucosidase [2], the “mechanism of α-glucosidase inhibition” value was “uncompetitive inhibitors” and the Ki was determined as 6.3 µM.

Consider `O=C(Cn1cc(COc2ccc(/C=N/NC(=O)c3cc4ccccc4[nH]3)cc2)nn1)Nc1ccccc1Cl` [Compound 11e, (E)-2-(4-((4-((2-(1H-indole-2-carbonyl)hydrazono)methyl)phenoxy)methyl)-1H-1,2,3-triazol-1-yl)-N-(2-chlorophenyl)acetamide], for which the melting point was over 250 °C. On yeast α-glucosidase [1], this compound had an IC50 of 26.97 ± 0.25 µM.

`O=C(Cn1cc(COc2ccc(/C=N/NC(=O)c3cc4ccccc4[nH]3)cc2)nn1)Nc1ccc(Cl)cc1` [Compound 11f, (E)-2-(4-((4-((2-(1H-indole-2-carbonyl)hydrazono)methyl)phenoxy)methyl)-1H-1,2,3-triazol-1-yl)-N-(4-chlorophenyl)acetamide] registered a melting point of 174 to 176 °C. Further, at yeast α-glucosidase [1] (setting [4]), the IC50 stood at 9.53 ± 0.12 µM. The “diminished inhibitory activity relative to compound 11d” value at yeast α-glucosidase [1] worked out at 1.5 folds.

For `O=C(Cn1cc(COc2ccc(/C=N/NC(=O)c3cc4ccccc4[nH]3)cc2)nn1)Nc1ccc(Br)cc1` [Compound 11g, (E)-2-(4-((4-((2-(1H-indole-2-carbonyl)hydrazono)methyl)phenoxy)methyl)-1H-1,2,3-triazol-1-yl)-N-(4-bromophenyl)acetamide], the half-maximal inhibitory concentration (IC50) on yeast α-glucosidase [1] (setting [4]) was 49.89 ± 0.09 µM. For the same compound, at yeast α-glucosidase [1], the “diminished inhibitory activity relative to compound 11d” value came out at 8 folds.

In turn, `Cc1cc(NC(=O)Cn2cc(COc3ccc(/C=N/NC(=O)c4cc5ccccc5[nH]4)cc3)nn2)ccc1[N+](=O)[O-]` [Compound 11h, (E)-2-(4-((4-((2-(1H-indole-2-carbonyl)hydrazono)methyl)phenoxy)methyl)-1H-1,2,3-triazol-1-yl)-N-(3-methyl-4-nitrophenyl)acetamide] showed a melting point of 200 to 202 °C. The IC50 at yeast α-glucosidase [1] came to 35.11 ± 0.07 µM.

`COc1cc(/C=N/NC(=O)c2cc3ccccc3[nH]2)ccc1OCc1cn(CC(=O)Nc2ccccc2)nn1` [Compound 11i, (E)-2-(4-((4-((2-(1H-indole-2-carbonyl)hydrazono)methyl)-2-methoxyphenoxy)methyl)-1H-1,2,3-triazol-1-yl)-N-phenylacetamide] showed an IC50 on yeast α-glucosidase [1] of 11.3 ± 0.15 µM.

Turning to `COc1ccc(NC(=O)Cn2cc(COc3ccc(/C=N/NC(=O)c4cc5ccccc5[nH]4)cc3OC)nn2)cc1` [Compound 11j, (E)-2-(4-((4-((2-(1H-indole-2-carbonyl)hydrazono)methyl)-2-methoxyphenoxy)methyl)-1H-1,2,3-triazol-1-yl)-N-(4-methoxyphenyl)acetamide], the IC50 at yeast α-glucosidase [1] (setting [4]) worked out at 24.19 ± 0.1 µM.

`COc1cc(/C=N/NC(=O)c2cc3ccccc3[nH]2)ccc1OCc1cn(CC(=O)Nc2ccc(Cl)cc2)nn1` [Compound 11k, (E)-2-(4-((4-((2-(1H-indole-2-carbonyl)hydrazono)methyl)-2-methoxyphenoxy)methyl)-1H-1,2,3-triazol-1-yl)-N-(4-chlorophenyl)acetamide]: the melting point fell in the range of 184 to 186 °C. Besides, the half-inhibitory concentration (IC50) at yeast α-glucosidase [1] (setting [4]) is 31.56 ± 0.12 µM.

Consider `COc1cc(/C=N/NC(=O)c2cc3ccccc3[nH]2)ccc1OCc1cn(CC(=O)Nc2cccc(Cl)c2Cl)nn1` [Compound 11l, (E)-2-(4-((4-((2-(1H-indole-2-carbonyl)hydrazono)methyl)-2-methoxyphenoxy)methyl)-1H-1,2,3-triazol-1-yl)-N-(2,3-dichlorophenyl)acetamide], for which the IC50 against yeast α-glucosidase [1] worked out at 18.2 ± 0.81 µM.

Take `COc1cc(/C=N/NC(=O)c2cc3ccccc3[nH]2)ccc1OCc1cn(CC(=O)Nc2cc(Cl)cc(Cl)c2)nn1` [Compound 11m, (E)-2-(4-((4-((2-(1H-indole-2-carbonyl)hydrazono)methyl)-2-methoxyphenoxy)methyl)-1H-1,2,3-triazol-1-yl)-N-(3,5-dichlorophenyl)acetamide]: the melting point is 247 to 249 °C. Moreover, 14.2 ± 0.21 µM corresponded to half-maximal inhibition on yeast α-glucosidase [1] (IC50).

`COc1cc(/C=N/NC(=O)c2cc3ccccc3[nH]2)ccc1OCc1cn(CC(=O)Nc2ccc(Br)cc2)nn1` [Compound 11n, (E)-2-(4-((4-((2-(1H-indole-2-carbonyl)hydrazono)methyl)-2-methoxyphenoxy)methyl)-1H-1,2,3-triazol-1-yl)-N-(4-bromophenyl)acetamide]: on yeast α-glucosidase [1] (setting [4]), the IC50 amounted to 8.3 ± 0.16 µM. Moreover, the “cytotoxicity on normal cell line” value in series [3] was “non-cytotoxic”. On yeast α-glucosidase [2], the “mechanism of α-glucosidase inhibition” value is recorded as “uncompetitive inhibitors” and the affinity corresponds to a Ki of 8.3 µM.

In turn, `COc1cc(/C=N/NC(=O)c2cc3ccccc3[nH]2)ccc1OCc1cn(CC(=O)Nc2cccc([N+](=O)[O-])c2Cl)nn1` [Compound 11o, (E)-2-(4-((4-((2-(1H-indole-2-carbonyl)hydrazono)methyl)-2-methoxyphenoxy)methyl)-1H-1,2,3-triazol-1-yl)-N-(2-chloro-3-nitrophenyl)acetamide] had a melting point of over 250 °C. On yeast α-glucosidase [1], half-maximal inhibition (IC50) required 12.67 ± 0.05 µM.
